Measurements taken from patent publication US5721238A, “2,8-disubstituted quinazolinones” (Bayer Aktiengesellschaft, priority 1995, dated 1998).

Columns and labels:
Type in all cases: biochemical
PDE II = experiment: Inhibition of the phosphodiesterases in vitro: PDE II (cGMP-stimulatable); conditions: cGMP-stimulatable PDE II from porcine or bovine myocardia; 3HcAMP substrate 10^-6 mol/l, 10^-6 mol/l non-labelled cGMP; pH 7.5; 30 minutes
Procedure: (§1) The cGMP-stimulatable PDE II, the cGMP-inhibitable PDE III and the cAMP-specific PDE IV were isolated from either porcine or bovine myocardia. The Ca-calmodulin-stimulatable PDE I was isolated from the porcine aorta or porcine brain. The cGMP-specific PDE V was obtained from the porcine intestine, porcine aorta and/or human blood platelets. Purification was carried out by anion exchange chromatography on MonoQ^R Pharmacia, essentially by the method of M. Hoey and Miles D. Houslay, Biochemical Pharmacology, Volume 40, 193-202 (1990).
(§2) The enzyme activity is determined in a test batch of 100 μl in 20 mM Tris/HCl buffer of pH 7.5 which contains 5 mM MgCl2, 0.1 mg/ml of bovine serum albumin and either 800 Bq of ^3 HcAMP or ^3 HcGMP. The final concentration of the corresponding nucleotide is 10^-6 mol/l. The reaction is started by addition of the enzyme and the amount of enzyme is chosen such that about 50% of the substrate is converted during the incubation time of 30 minutes. To test the cGMP-stimulatable PDE II, ^3 HcAMP is used as the substrate and 10^-6 mol/l of non-labelled cGMP is added to the batch. To test the Ca-calmodulin-dependent PDE I, 1 μM CaCl2 and 0.1 μM calmodulin are also added to the reaction batch. The reaction is stopped by addition of 100 μl of acetonitrile which contains 1 mM cAMP and 1 mM AMP. 100 μl of the reaction batch are separated on the HPLC and the cleavage products are determined quantitatively "online" using a flow-through scintillation counter. The substance concentration at which the rate of reaction is reduced by 50% is measured.

PDE I = experiment: Inhibition of the phosphodiesterases in vitro: PDE I (Ca-calmodulin-stimulatable); conditions: Ca-calmodulin-stimulatable PDE I from porcine aorta or porcine brain; nucleotide 10^-6 mol/l; 1 μM CaCl2, 0.1 μM calmodulin; pH 7.5; 30 minutes
Procedure: as §1, §2

PDE V = experiment: Inhibition of the phosphodiesterases in vitro: PDE V (cGMP-specific); conditions: cGMP-specific PDE V from porcine intestine, porcine aorta and/or human blood platelets; nucleotide 10^-6 mol/l; pH 7.5; 30 minutes
Procedure: as §1, §2

| SMILES | IC50 (PDE II) | IC50 (PDE I) | IC50 (PDE V) |
| --- | --- | --- | --- |
| CCCCCC(O)C(OC)c1cccc2c(=O)[nH]c(-c3ccccc3OCCC)nc12 (stereo not drawn) [Example 14, 2-(2-n-Propoxyphenyl)-8-(1-methoxy-2-hydroxy-1-heptyl)-quinazolin-4(3H)-one] | 5 µM | 5 µM | 3 µM |
| CCCOc1ccccc1-c1nc2c(C(OC)C(O)CCc3ccccc3)cccc2c(=O)[nH]1 (stereo not drawn) [Example 16, 2-(2-n-Propoxyphenyl)-8-(4-phenyl-1-methoxy-2-hydroxy-1-butyl)-quinazolin-4(3H)-one] | 5 µM | – | 5 µM |
| CCCOc1ccccc1-c1nc2c(C(OC)C(O)Cc3ccccc3)cccc2c(=O)[nH]1 (stereo not drawn) [Example 15, 2-(2-n-Propoxyphenyl)-8-(3-phenyl-1-methoxy-2-hydroxy-1-propyl)-quinazolin-4(3H)-one] | 5 µM | 3 µM | – |

Continued, values first:

| IC50 (PDE II) | IC50 (PDE I) | IC50 (PDE V) | SMILES |
| --- | --- | --- | --- |
| 2 µM | 10 µM | 5 µM | CCCCCC(O)C(CC)c1cccc2c(=O)[nH]c(-c3ccccc3OCCC)nc12 (stereo not drawn) [Example 20, 2-(2-n-Propoxyphenyl)-8-(4-hydroxy-3-nonyl)-quinazolin-4(3H)-one] |
| 0.5 µM | – | 1 µM | CCCOc1ccc(S(=O)(=O)N2CCOCC2)cc1-c1nc2c(C(C)CCCc3ccccc3)cccc2c(=O)[nH]1 (stereo not drawn) [Example 29, 2-(2-n-Propoxy-5-morpholinosulphonylphenyl)-8-(5-phenyl-2-pentyl)-quinazolin-4-(3H)-one] |
